Reference: US20250269018A1, “COMBINED CANCER THERAPY WITH AN EPITHELIAL CELL ADHESION MOLECULE (EPCAM) INHIBITOR AND A HEPATOCYTE GROWTH FACTOR RECEPTOR (HGFR) INHIBITOR” (ACADEMIA SINICA, priority 2021, published 2025)

B1: EpAb2-6: anti-EpCAM neutralizing monoclonal antibody targeting EpEX; VH SEQ ID NO: 15, VL SEQ ID NO: 16 (antibody, listed as Homo sapiens, V domains shown)
VH: VKLQESGPELKKPGETVKISCKASGYTFTDYSMHWVKQAPGKGLKWMGWINTETGEPTYADDFKGRFAFSLETSASTAYLQINNLKNEDTATYFCARTAVYWGQGTTVTVSS
VL: DIQMTQSPSSLSASLGERVSLTCRASQEISVSLSWLQQEPDGTIKRLIYATSTLDSGVPKRFSGSRSGSDYSLTISSLESEDFVDYYCLQYASYPWTFGGGTKLEIKRADAAPTVS

Key:
HGFR signaling = test: Western blotting of phosphorylated ERK and AKT in HT29 cells; assay type: cell-based, human; conditions: SU11274 with EpEX-His, FIG. 2C
Protocol: (§1) FIGS. 2A to 2K. EpEX promotes tumor progression via HGFR signaling. (FIG. 2A) WT or EpCAM knockout (KO) HCT116 and HT29 cells treated with HGF (0.5 nM) for 15 min. The phosphorylation of HGFR, AKT, and ERK was examined by Western blotting. (FIG. 2B) WT or KO HCT116 and HT29 cells were treated with HGF (0.5 nM) with 2% FBS for the indicated times. Cell growth was examined by the WST-1 assay. (FIG. 2C) Starved HCT116 cells were treated with HGFR inhibitor SU11274 (SU, 10 μM) for 1 h then treated with 50 nM of EpEX-His for 15 min. The levels of phosphorylated HGFR, EGFR, AKT, and ERK were examined by Western blotting. HCT116 and HT29 cells were treated with 50 nM EpEX and SU (10 μM). […]
Whole cell extracts were prepared with RIPA buffer (50 mM Tris-HCl pH7.4, 1% NP-40, 0.5% Sodium deoxycholate, 0.1% SDS, 150 mM NaCl, 2 mM EDTA, 50 mM NaF). Protein concentrations of the cell lysates were determined by the Bradford assay. […]
Appropriate horseradish peroxidase-associated secondary antibodies (Millipore) were applied and the membranes were incubated at room temperature (RT) for 1 h. The protein bands were subsequently visualized with chemiluminescence reagents (Millipore) and detected on a BioSpectrum 600 Imaging system (UVP). The protein level was quantified from band intensity using Gel-Pro analyzer 3.1 (Media Cybernetics).

HCT116 cells = test: Cell growth by WST-1 assay, HCT116; assay type: cell-based, human; conditions: 50 nM EpEX and SU 10 μM, FIG. 2D
Protocol: as §1, with “μM). (FIG. 2D) Cell growth was examined by WST-1 assay after treatment for indicated time. (FIG. 2E) HCT116 cells were treated with shLuc or HGFR shRNA then treated with 50 nM of EpEX-His for 15 min. The levels of phosphorylated HGFR, EGFR, ERK, and AKT were examined in HGFR knockdown HCT116 cells by Western blotting. (FIG. 2F) The levels of phosphorylated ADAM17 and presenilin 2 were examined by Western blotting.” for “μM).”
(§2) Cell viability was assayed by measuring mitochondrial dehydrogenase activity with the WST-1 (4-[3-(4-lodophenyl)-2-(4-nitrophenyl)-2H-5-tetrazolio]-1, 3-benzene disulfonate) assay. […] Following the incubation, absorbance of each well was detected at 450 nm using a spectrophotometric microplate reader.

HT29 cells = test: Cell growth by WST-1 assay, HT29; assay type: cell-based, human; conditions: 50 nM EpEX and SU 10 μM, FIG. 2D
Protocol: as §1, with “μM). (FIG. 2D) Cell growth was examined by WST-1 assay after treatment for indicated time. (FIG. 2E) HCT116 cells were treated with shLuc or HGFR shRNA then treated with 50 nM of EpEX-His for 15 min. The levels of phosphorylated HGFR, EGFR, ERK, and AKT were examined in HGFR knockdown HCT116 cells by Western blotting. (FIG. 2F) The levels of phosphorylated ADAM17 and presenilin 2 were examined by Western blotting.” for “μM).”
as §2

EpEX binding to HGFR = biological target: T1, EpEX binding to HGFR (Homo sapiens, UniProt P16422); test: ELISA of EpEX-His binding to HGFR-Fc-coated plates; conditions: EpEX-His 2 μg/ml with 1 μg antibody; HGFR-Fc 1 μg/ml coated; FIG. 6F
T1 construct: the soluble extracellular domain of EpCAM (EpEX); His; made in house; host or cells: Expi293
T1 sequence (P16422 24-265 limits assumed): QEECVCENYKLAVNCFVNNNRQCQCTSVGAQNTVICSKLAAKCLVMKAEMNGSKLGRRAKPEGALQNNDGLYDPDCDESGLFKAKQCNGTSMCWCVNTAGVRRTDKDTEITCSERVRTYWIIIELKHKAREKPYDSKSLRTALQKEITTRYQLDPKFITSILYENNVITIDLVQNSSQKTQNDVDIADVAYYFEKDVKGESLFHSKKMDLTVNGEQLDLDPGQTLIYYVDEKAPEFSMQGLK
Protocol: FIGS. 6A to 6J. EpAb2-6 inhibits EpCAM and HGFR signaling and promotes active β-catenin and Snail protein degradation via activating GSK3β. (FIG. 6A) HCT116 cells were treated with 10 μg/ml control IgG (normal mouse IgG, NMIgG) or mouse EpAb2-6 (EpAb2-6) for 16 h, followed by treatment with EpEX-His (50 nM) for 15 min. Levels of phosphorylated HGFR, AKT, FAK, GSK3β, ERK, ADAM17, and presenilin 2 were examined by Western blotting. (FIG. 6B) HCT116 cells were treated with 10 μg/ml control IgG or mouse EpAb2-6 for 16 h, followed by treatment without or with HGF (0.5 nM) for 15 min. Levels of phosphorylated HGFR, AKT, and ERK were examined by Western blotting. HCT116 cells were treated with mouse EpAb2-6 (10 μg/ml) and HGF (0.5 nM). […] (FIG. 6D) Cell invasion was assessed by a Transwell assay with matrigel after 24 h. […] (FIG. 6F) EpEX-His (2 μg/ml) co-treated with 1 μg IgG or EpAb2-6 was added to HGFR-Fc-coated (1 μg/ml) ELISA plates and detected by TMB colorimetric peroxidase assay. (FIG. 6G) EMT associated protein levels were detected by Western blotting in HCT116 cells treated with NMIgG or EpAb2-6 for 24 h. (FIG. 6H) Protein expression was analyzed by Western blotting in HCT116 cells after treatment with EpAb2-6 and 2 μM GSK3β inhibitor (BIO) for 24 h. Quantification of the normalized protein expression in the bottom panel. […]

HCT116 or HT29 = test: Metastatic and orthotopic animal models of colon cancer, overall statements
Protocol: Colon cancer HCT116 or HT29 (5×10^6 cells/mouse) in PBS were injected into 4-6-week-old female NOD/SCID mice through the tail vein. Mice were then randomly assigned to different treatment groups by body weight. After 3 days, antibodies were administered through tail vein injection twice a week for four consecutive weeks. Crizotinib was administered daily by oral gavage for 5 days per week (treatment for four weeks). For the therapeutic study, tumor-bearing mice were treated with isotype control IgG1 (15 mg/kg), crizotinib (20 mg/kg), EpAb2-6 (15 mg/kg), or crizotinib (20 mg/kg) combined with EpAb2-6 (15 mg/kg). Mouse survival rate were measured.
Orthotopic tumor models were created as previously reported (Chen et al., 2020). Briefly, NSCID mice were used for orthotopic implantation of HCT116 cells previously infected with Lenti-luc virus (lentivirus containing luciferase gene). The mice were anesthetized by i.p. injection ofAvertin, 2,2,2-Tribromo-ethanol (Sigma-Aldrich) at a dose of 250 mg/kg. Tumor development was monitored by bioluminescence imaging. For the therapeutic study, tumor-bearing mice were treated with isotype control IgG1 (15 mg/kg), crizotinib (20 mg/kg), EpAb2-6 (15 mg/kg), or crizotinib (20 mg/kg) combined with EpAb2-6 (15 mg/kg). Tumor progression was monitored by quantification of bioluminescence. Mouse survival was also monitored.

Row | Molecule | EpEX-mediated ERK and AKT phosphorylation (HGFR signaling) | EpEX-induced increases in cell viability and proliferation (HCT116 cells) | EpEX-induced increases in cell viability and proliferation (HT29 cells) | EpEX binding to HGFR (EpEX binding to HGFR) | survival (HCT116 or HT29) | tumor progression (HCT116 or HT29)
1 | Cc1[nH]c(C=C2C(=O)Nc3ccc(S(=O)(=O)N(C)c4cccc(Cl)c4)cc32)c(C)c1C(=O)N1CCN(C)CC1 (stereo in doubt) [SU11274, (3Z)-N-(3-Chlorophenyl)-3-({3,5-dimethyl-4-[(4-methylpiperazin-1-yl)carbonyl]-1H-pyrrol-2-yl}methylene)-N-methyl-2-oxo-2,3-dihydro-1H-indole-5-sulfonamide] | attenuate EpEX-mediated ERK and AKT phosphorylation | abolished the EpEX-induced increases in cell viability and proliferation | abolished the EpEX-induced increases in cell viability and proliferation | – | – | –
2 | B1 | – | – | – | inhibit EpEX binding to HGFR | higher median survival than the control IgG- or crizotinib-treated groups | much slower tumor progression
